Measured values: patent publication US11912703B2, “6-azaindole compounds” (BRISTOL-MYERS SQUIBB COMPANY, priority 2017, dated 2024)
Like-named read-outs stand apart in the source and are kept apart here.

Assays:
human TLR9 = human TLR9 (Homo sapiens (Human), UniProt Q9NR96); experiment: TLR9 inhibition reporter assay (HEK-Blue SEAP);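 note: SEAP driven by IFN-β minimal promoter carrying five NF-κB and AP-1 sites, 22 h at 37 °C, compounds 0.05 nM–50 µM, inhibition scaled between agonist-plus-DMSO and reference-inhibitor wells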
Sequence of human TLR9 (Q9NR96 26-1032): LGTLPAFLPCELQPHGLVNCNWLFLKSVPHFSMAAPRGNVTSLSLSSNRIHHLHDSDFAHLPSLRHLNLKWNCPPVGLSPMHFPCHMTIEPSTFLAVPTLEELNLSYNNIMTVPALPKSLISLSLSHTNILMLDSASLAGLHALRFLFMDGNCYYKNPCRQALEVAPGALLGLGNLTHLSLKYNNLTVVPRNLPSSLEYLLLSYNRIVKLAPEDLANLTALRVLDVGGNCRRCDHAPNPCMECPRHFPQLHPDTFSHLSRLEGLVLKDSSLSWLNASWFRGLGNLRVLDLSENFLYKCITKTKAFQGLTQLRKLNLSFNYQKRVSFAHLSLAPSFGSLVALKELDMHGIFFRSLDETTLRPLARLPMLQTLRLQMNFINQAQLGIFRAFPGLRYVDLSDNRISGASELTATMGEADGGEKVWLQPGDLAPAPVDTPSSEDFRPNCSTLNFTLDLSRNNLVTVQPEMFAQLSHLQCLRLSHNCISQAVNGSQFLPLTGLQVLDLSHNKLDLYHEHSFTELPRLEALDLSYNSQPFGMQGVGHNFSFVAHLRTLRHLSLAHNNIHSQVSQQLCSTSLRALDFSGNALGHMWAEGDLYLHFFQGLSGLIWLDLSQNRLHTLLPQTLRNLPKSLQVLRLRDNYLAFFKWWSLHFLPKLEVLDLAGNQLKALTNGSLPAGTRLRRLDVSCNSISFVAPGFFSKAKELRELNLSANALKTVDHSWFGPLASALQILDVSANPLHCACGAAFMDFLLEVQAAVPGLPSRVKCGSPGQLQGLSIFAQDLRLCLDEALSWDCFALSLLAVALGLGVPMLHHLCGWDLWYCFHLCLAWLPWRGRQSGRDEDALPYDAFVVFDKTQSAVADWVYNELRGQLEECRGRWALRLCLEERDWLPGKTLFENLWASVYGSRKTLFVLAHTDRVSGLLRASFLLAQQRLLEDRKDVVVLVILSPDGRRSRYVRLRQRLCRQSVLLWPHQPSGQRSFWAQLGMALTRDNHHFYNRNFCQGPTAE
Experimental: HEK-Blue™-cells (Invivogen) overexpressing human TLR7, TLR8 or TLR9 receptors were used for screening inhibitors of these receptors using an inducible SEAP (secreted embryonic alkaline phosphatase) reporter gene under the control of the IFN-β minimal promoter fused to five NF-κB and AP-1-binding sites. Briefly, cells are seeded into Greiner 384 well plates (15000 cells per well for TLR7, 20,000 for TLR8 and 25,000 for TLR9) and then treated with test compounds in DMSO to yield a final dose response concentration range of 0.05 nM-50 μM. After a 30 minute compound pre-treatment at room temperature, the cells are then stimulated with a TLR7 ligand (gardiquimod at a final concentration of 7.5 μM), TLR8 ligand (R848 at a final concentration of 15.9 μM) or TLR9 ligand (ODN2006 at a final concentration of 5 nM) to activate NF-κB and AP-1 which induce the production of SEAP. After a 22 hour incubation at 37° C., 500 CO2, SEAP levels are determined with the addition of HEK-Blue™ Detection reagent (Invivogen), a cell culture medium that allows for detection of SEAP, according to manufacturer's specifications.

human TLR8 = human TLR8 (Homo sapiens (Human), UniProt Q9NR97); experiment: TLR8 inhibition reporter assay (HEK-Blue SEAP);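 note: SEAP driven by IFN-β minimal promoter with five NF-κB and AP-1 sites, compounds tested 0.05 nM to 50 µM, 22 h incubation, inhibition relative to agonist plus DMSO wells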
Sequence of human TLR8 (Q9NR97 27-1041): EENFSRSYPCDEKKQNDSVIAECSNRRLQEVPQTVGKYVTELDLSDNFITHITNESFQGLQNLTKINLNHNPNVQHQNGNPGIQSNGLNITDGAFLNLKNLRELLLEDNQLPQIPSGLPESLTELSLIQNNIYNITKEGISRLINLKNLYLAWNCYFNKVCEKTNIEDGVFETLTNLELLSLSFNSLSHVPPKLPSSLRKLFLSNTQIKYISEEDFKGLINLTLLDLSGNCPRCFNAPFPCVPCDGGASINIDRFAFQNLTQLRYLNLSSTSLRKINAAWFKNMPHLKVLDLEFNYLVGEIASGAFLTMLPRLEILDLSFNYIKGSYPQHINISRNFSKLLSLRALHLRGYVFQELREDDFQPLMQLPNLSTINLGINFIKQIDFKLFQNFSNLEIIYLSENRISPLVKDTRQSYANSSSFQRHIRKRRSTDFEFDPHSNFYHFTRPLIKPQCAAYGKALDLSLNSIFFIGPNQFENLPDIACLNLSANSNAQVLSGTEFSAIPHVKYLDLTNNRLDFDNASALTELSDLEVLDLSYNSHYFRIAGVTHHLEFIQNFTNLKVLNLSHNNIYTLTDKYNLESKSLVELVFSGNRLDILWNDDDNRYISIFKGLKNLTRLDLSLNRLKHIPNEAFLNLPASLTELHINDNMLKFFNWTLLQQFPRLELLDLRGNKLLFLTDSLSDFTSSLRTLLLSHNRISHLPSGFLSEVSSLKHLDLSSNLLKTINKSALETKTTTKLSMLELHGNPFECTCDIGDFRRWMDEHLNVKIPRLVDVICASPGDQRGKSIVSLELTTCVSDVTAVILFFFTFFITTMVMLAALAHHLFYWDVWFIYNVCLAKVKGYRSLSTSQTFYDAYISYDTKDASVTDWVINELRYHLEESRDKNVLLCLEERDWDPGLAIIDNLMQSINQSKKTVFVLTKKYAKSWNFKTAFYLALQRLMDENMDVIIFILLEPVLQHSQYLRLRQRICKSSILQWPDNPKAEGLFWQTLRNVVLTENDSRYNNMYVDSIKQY

human TLR7 = human TLR7 (Homo sapiens (Human), UniProt Q9NYK1); experiment: TLR7 inhibition reporter assay (HEK-Blue SEAP); format: cell-based; conditions: HEK-Blue cells overexpressing human TLR7, gardiquimod 7.5 μM stimulation
Sequence of human TLR7 (Q9NYK1 27-1049): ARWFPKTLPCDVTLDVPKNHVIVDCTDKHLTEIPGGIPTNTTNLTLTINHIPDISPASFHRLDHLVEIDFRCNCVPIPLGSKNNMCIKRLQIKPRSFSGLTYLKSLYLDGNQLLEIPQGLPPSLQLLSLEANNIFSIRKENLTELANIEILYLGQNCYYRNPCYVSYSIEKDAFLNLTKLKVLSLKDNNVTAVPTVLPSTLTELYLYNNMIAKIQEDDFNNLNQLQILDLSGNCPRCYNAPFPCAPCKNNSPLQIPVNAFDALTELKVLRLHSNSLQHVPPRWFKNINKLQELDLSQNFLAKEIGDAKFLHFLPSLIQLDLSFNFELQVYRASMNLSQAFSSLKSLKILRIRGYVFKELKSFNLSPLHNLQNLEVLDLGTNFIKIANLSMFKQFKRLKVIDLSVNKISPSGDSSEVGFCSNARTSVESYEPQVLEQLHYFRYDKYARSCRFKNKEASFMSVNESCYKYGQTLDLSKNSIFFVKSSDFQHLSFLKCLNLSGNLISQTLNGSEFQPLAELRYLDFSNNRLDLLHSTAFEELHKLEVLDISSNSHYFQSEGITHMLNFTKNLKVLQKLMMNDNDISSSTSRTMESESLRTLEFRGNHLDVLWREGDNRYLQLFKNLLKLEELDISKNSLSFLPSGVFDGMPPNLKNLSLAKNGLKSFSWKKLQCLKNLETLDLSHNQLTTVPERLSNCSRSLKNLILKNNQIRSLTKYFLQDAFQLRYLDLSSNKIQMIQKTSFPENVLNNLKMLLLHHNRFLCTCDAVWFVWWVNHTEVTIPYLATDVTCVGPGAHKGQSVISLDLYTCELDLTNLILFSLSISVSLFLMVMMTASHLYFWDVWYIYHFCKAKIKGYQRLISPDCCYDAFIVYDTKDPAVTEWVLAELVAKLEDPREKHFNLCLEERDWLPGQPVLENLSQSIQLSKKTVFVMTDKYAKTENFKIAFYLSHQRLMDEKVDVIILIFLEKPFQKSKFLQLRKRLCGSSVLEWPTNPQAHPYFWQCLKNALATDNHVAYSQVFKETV

[1] = read-out: TLR9 IC50; HEK-Blue cells overexpressing human TLR9, ODN2006 5 nM stimulation, SEAP reporter
[2] = read-out: TLR8 IC50; HEK-Blue cells overexpressing human TLR8, R848 15.9 μM stimulation, SEAP reporter
[3] = read-out: TLR9 IC50; HEK-Blue cells overexpressing human TLR9; ODN2006 5 nM stimulation; SEAP reporter
[4] = read-out: TLR8 IC50; HEK-Blue cells overexpressing human TLR8; R848 15.9 μM stimulation; SEAP reporter

In the case of `COc1cc(-c2[nH]c3cnc(N4CCC(N5CCC5)CC4)c(F)c3c2C(C)C)cn2ncnc12` [Example 253], the IC50 (human TLR9; [1]) is reported as 2860 nM, the IC50 (human TLR8; [2]) is reported as 0.77 nM and the IC50 (human TLR7) is reported as 0.97 nM.

For `Cc1c(-c2[nH]c3cnc(N4CCN(CC(=O)N5CCOCC5)CC4)c(F)c3c2C(C)C)cn2ncnc2c1C` [Example 423], the IC50 (human TLR9; [1]) was 42500 nM, the IC50 (human TLR8; [2]) was 0.59 nM and the IC50 (human TLR7) was 5.4 nM.

`CNC(=O)CN1CCN(c2ncc3[nH]c(-c4cc(OC)c5ncnn5c4)c(C(C)C)c3c2Cl)CC1` [Example 293] was tested, and the IC50 (human TLR9; [1]) was 29100 nM, the IC50 (human TLR8; [2]) was 4.7 nM and the IC50 (human TLR7) was 3.1 nM.

Molecule `Cc1c(-c2[nH]c3cnc(N4CC5(C4)CN(C4CCOCC4)C5)c(F)c3c2C(C)C)cn2ncnc2c1C` [Example 401] has an IC50 (human TLR9; [1]) of 6440 nM, an IC50 (human TLR8; [2]) of 4.4 nM and an IC50 (human TLR7) of 27 nM.

`Cc1c(-c2[nH]c3cnc(N4CC5(CN(CC(C)C)C5)C4)c(F)c3c2C(C)C)cn2ncnc2c1C` [Example 402] showed an IC50 (human TLR9; [1]) of 5970 nM, an IC50 (human TLR8; [2]) of 4.4 nM and an IC50 (human TLR7) of 30 nM.

Molecule `COc1cc(-c2[nH]c3cnc(C4CCC(NCC5(C)COC5)CC4)c(F)c3c2C(C)C)cn2ncnc12` (centres unmarked) [Example 225] has an IC50 (human TLR9; [3]) of 4700 nM, an IC50 (human TLR8; [4]) of 1.4 nM and an IC50 (human TLR7) of 4 nM.

`COc1cc(-c2[nH]c3cnc(C4CCC(N5CC6(COC6)C5)C4)cc3c2C(C)C)cn2ncnc12` (centres unmarked) [Example 118] gave an IC50 (human TLR9; [1]) of 294 nM, an IC50 (human TLR8; [2]) of 1.4 nM and an IC50 (human TLR7) of 8.6 nM.

For `Cc1c(N2CCC(NCC(C)(C)C)CC2)ncc2[nH]c(-c3cc(C)c4ncnn4c3)c(C(C)C)c12` [Example 112], the IC50 (human TLR9; [1]) was 1880 nM, the IC50 (human TLR8; [2]) was 2.3 nM and the IC50 (human TLR7) was 1.6 nM.

For `Cc1c(-c2[nH]c3cnc(N4CCN(CC(=O)N(C)C)CC4)c(C)c3c2C(C)C)cn2ncnc2c1C` [Example 352, 2-(4-(2-(7,8-dimethyl-[1,2,4]triazolo[1,5-a]pyridin-6-yl)-3-isopropyl-4-methyl-1H-pyrrolo[2,3-c]pyridin-5-yl)piperazin-1-yl)-N,N-dimethylacetamide], the IC50 (human TLR9; [1]) was 19800 nM, the IC50 (human TLR8; [2]) was 0.73 nM and the IC50 (human TLR7) was 14 nM.

With `Cc1c(-c2[nH]c3cnc(N4CCN(C(=O)CN(C)C)CC4)c(F)c3c2C(C)C)cn2ncnc2c1C` [Example 422] the IC50 (human TLR9; [1]) was 6820 nM, the IC50 (human TLR8; [2]) was 2 nM and the IC50 (human TLR7) was 3.1 nM.

`Cc1c(-c2[nH]c3cnc(C4CCN(CC(N)=O)CC4)c(F)c3c2C(C)C)cn2ncnc2c1C` [Example 15] was tested, and the IC50 (human TLR9; [1]) was 13500 nM, the IC50 (human TLR8; [2]) was 1.6 nM and the IC50 (human TLR7) was 3.5 nM.

`Cc1c(-c2[nH]c3cnc(C4CCN(C(C)C)CC4)cc3c2C(C)C)cn2ncnc2c1C` [Example 35] showed an IC50 (human TLR9; [1]) of 154 nM, an IC50 (human TLR8; [2]) of 2.8 nM and an IC50 (human TLR7) of 1.7 nM.

Work on `COc1cc(-c2[nH]c3cnc(C4CCC(NC5CCOCC5)CC4)c(C)c3c2C(C)C)cn2ncnc12` (centres unmarked) [Example 176] yielded an IC50 (human TLR9; [1]) of 325 nM, an IC50 (human TLR8; [2]) of 18 nM and an IC50 (human TLR7) of 16 nM.

In the case of `Cc1c(-c2[nH]c3cnc(N4CCC(NC5COC5)CC4)c(C)c3c2C(C)C)cn2ncnc2c1C` [Example 237], the IC50 (human TLR9; [1]) is reported as 2070 nM, the IC50 (human TLR9; [3]) is reported as 2070 nM and the IC50 (human TLR8; [2]) is reported as 0.95 nM. The IC50 (human TLR8; [4]) was 0.95 nM and the IC50 (human TLR7) was 1.6 nM.

Molecule `CCN(C)C1CCC(c2cc3c(C(C)C)c(-c4cc(OC)c5ncnn5c4)[nH]c3cn2)C1` (centres unmarked) [Example 272] has an IC50 (human TLR9; [1]) of 391 nM, an IC50 (human TLR8; [2]) of 22 nM and an IC50 (human TLR7) of 7 nM.

For `COc1cc(-c2[nH]c3cnc(C4CCN(C5CCOCC5)CC4)c(F)c3c2C(C)C)cn2ncnc12` [Example 217], the IC50 (human TLR9; [3]) was 7600 nM, the IC50 (human TLR8; [4]) was 4.4 nM and the IC50 (human TLR7) was 3.4 nM.

For `Cc1cc(-c2[nH]c3cnc(C4CCC(NCC(C)(C)C)CC4)c(F)c3c2C(C)C)cn2ncnc12` (centres unmarked) [Example 260], the IC50 (human TLR9; [1]) was 837 nM, the IC50 (human TLR8; [2]) was 1.7 nM and the IC50 (human TLR7) was 1.4 nM.

`CNC(=O)CN1CCC(c2ncc3[nH]c(-c4cc(OC)c5ncnn5c4)c(C(C)C)c3c2C)CC1` [Example 2, 2-(4-(3-isopropyl-2-(8-methoxy-[1,2,4]triazolo[1,5-a]pyridin-6-yl)-4-methyl-1H-pyrrolo[2,3-c]pyridin-5-yl)piperidin-1-yl)-N-methylacetamide] gave an IC50 (human TLR9; [1]) of 398 nM, an IC50 (human TLR8; [2]) of 14 nM and an IC50 (human TLR7) of 1.6 nM.

With `Cc1cc(-c2[nH]c3cnc(C4CCNCC4)c(F)c3c2C(C)C)cc(C)n1` [Example 151] the IC50 (human TLR9; [1]) was 768 nM, the IC50 (human TLR8; [2]) was 4.4 nM and the IC50 (human TLR7) was 1.1 nM.

`Cc1c(-c2[nH]c3cnc(N4CC5(CN(CC6(C)COC6)C5)C4)c(F)c3c2C(C)C)cn2ncnc2c1C` [Example 405] showed an IC50 (human TLR9; [1]) of 17100 nM, an IC50 (human TLR8; [2]) of 15 nM and an IC50 (human TLR7) of 46 nM.

Work on `Cc1c(-c2[nH]c3cnc(N4CCC(NCC(C)(C)O)CC4)c(C)c3c2C(C)C)cn2ncnc2c1C` [Example 88] yielded an IC50 (human TLR9; [1]) of 322 nM, an IC50 (human TLR8; [2]) of 0.28 nM and an IC50 (human TLR7) of 0.62 nM.

For `COc1cc(-c2[nH]c3cnc(N4CCNCC4)cc3c2C(C)C)cn2ncnc12` [Example 7, 6-(3-isopropyl-5-(piperazin-1-yl)-1H-pyrrolo[2,3-c]pyridin-2-yl)-8-methoxy-[1,2,4]triazolo [1,5-a]pyridine], the IC50 (human TLR9; [1]) was 168 nM, the IC50 (human TLR8; [2]) was 0.56 nM and the IC50 (human TLR7) was 1.5 nM.

In the case of `COc1cc(-c2[nH]c3cnc(N4CCN(C(C)C)CC4)c(F)c3c2C(C)C)cn2ncnc12` [Example 384], the IC50 (human TLR9; [1]) is reported as 3260 nM, the IC50 (human TLR8; [2]) is reported as 0.55 nM and the IC50 (human TLR7) is reported as 0.96 nM.
